Tested on: p53 signaling pathway in MT373 tumors
Assay: MT373 syngeneic sarcoma model: mouse p53 signaling pathway profiling panel
Format: in vivo

SMILES: CCn1c(C#CCNc2ccccc2)cc2cc(CNC3CCN(C)CC3)ccc21 [Compound 1, 1-Anilino-3-{1-ethyl-5-[(1-methyl-4-piperidylamino)methyl]-1H-indol-2-yl}-2-propyne]
- Apex1 fold increase or percent reduction vs vehicle control (75 mg/kg BIDx1, 8 h): 19.97 fold or %
- Atm fold increase or percent reduction vs vehicle control (75 mg/kg BIDx1, 8 h): 13.42 fold or %
- Atr fold increase or percent reduction vs vehicle control (75 mg/kg BIDx1, 8 h): 8.05 fold or %
- Bag1 fold increase or percent reduction vs vehicle control (75 mg/kg BIDx1, 8 h): 24.87 fold or %
- Bax fold increase or percent reduction vs vehicle control (75 mg/kg BIDx1, 8 h): 1.97 fold or %
- Bbc3 fold increase or percent reduction vs vehicle control (75 mg/kg BIDx1, 8 h): 2.97 fold or %
- Bcl2 fold increase or percent reduction vs vehicle control (75 mg/kg BIDx1, 8 h): 7.84 fold or %
- Bid fold increase or percent reduction vs vehicle control (75 mg/kg BIDx1, 8 h): 1.19 fold or %
- Birc5 fold increase or percent reduction vs vehicle control (75 mg/kg BIDx1, 8 h): 15.16 fold or %
- Brca1 fold increase or percent reduction vs vehicle control (75 mg/kg BIDx1, 8 h): 3.14 fold or %
- Brca2 fold increase or percent reduction vs vehicle control (75 mg/kg BIDx1, 8 h): 5.75 fold or %
- Btg2 fold increase or percent reduction vs vehicle control (75 mg/kg BIDx1, 8 h): 14.84 fold or %
- Casp2 fold increase or percent reduction vs vehicle control (75 mg/kg BIDx1, 8 h): 17.74 fold or %
- Ccnb1 fold increase or percent reduction vs vehicle control (75 mg/kg BIDx1, 8 h): 4.81 fold or %
- Ccne1 fold increase or percent reduction vs vehicle control (75 mg/kg BIDx1, 8 h): 12.14 fold or %
- Ccng1 fold increase or percent reduction vs vehicle control (75 mg/kg BIDx1, 8 h): 6.19 fold or %
- Ccnh fold increase or percent reduction vs vehicle control (75 mg/kg BIDx1, 8 h): 15.28 fold or %
- Cdc25a fold increase or percent reduction vs vehicle control (75 mg/kg BIDx1, 8 h): 15.20 fold or %
- Cdk1 fold increase or percent reduction vs vehicle control (75 mg/kg BIDx1, 8 h): 32.00 fold or %
- Cdk4 fold increase or percent reduction vs vehicle control (75 mg/kg BIDx1, 8 h): 37.50 fold or %
- Cdkn1a fold increase or percent reduction vs vehicle control (75 mg/kg BIDx1, 8 h): 7.14 fold or %
- Cdkn2a fold increase or percent reduction vs vehicle control (75 mg/kg BIDx1, 8 h): 31.09 fold or %
- Chek1 fold increase or percent reduction vs vehicle control (75 mg/kg BIDx1, 8 h): 19.58 fold or %
- Cradd fold increase or percent reduction vs vehicle control (75 mg/kg BIDx1, 8 h): 21.01 fold or %
- Cul9 fold increase or percent reduction vs vehicle control (75 mg/kg BIDx1, 8 h): 1.73 fold or %
- Dapk1 fold increase or percent reduction vs vehicle control (75 mg/kg BIDx1, 8 h): 1.37 fold or %
- Dnmt1 fold increase or percent reduction vs vehicle control (75 mg/kg BIDx1, 8 h): 1.16 fold or %
- E2f1 fold increase or percent reduction vs vehicle control (75 mg/kg BIDx1, 8 h): 1.05 fold or %
- E2f3 fold increase or percent reduction vs vehicle control (75 mg/kg BIDx1, 8 h): 21.77 fold or %
- Egfr fold increase or percent reduction vs vehicle control (75 mg/kg BIDx1, 8 h): 42.31 fold or %
- Egr1 fold increase or percent reduction vs vehicle control (75 mg/kg BIDx1, 8 h): 59.72 fold or %
- Ep300 fold increase or percent reduction vs vehicle control (75 mg/kg BIDx1, 8 h): 15.26 fold or %
- Ercc1 fold increase or percent reduction vs vehicle control (75 mg/kg BIDx1, 8 h): 20.74 fold or %
- Esr1 fold increase or percent reduction vs vehicle control (75 mg/kg BIDx1, 8 h): 1.22 fold or %
- Fadd fold increase or percent reduction vs vehicle control (75 mg/kg BIDx1, 8 h): 2.66 fold or %
- Fas fold increase or percent reduction vs vehicle control (75 mg/kg BIDx1, 8 h): 1.75 fold or %
- Fasl fold increase or percent reduction vs vehicle control (75 mg/kg BIDx1, 8 h): 1.24 fold or %
- Foxo3 fold increase or percent reduction vs vehicle control (75 mg/kg BIDx1, 8 h): 1.04 fold or %
- Gadd45a fold increase or percent reduction vs vehicle control (75 mg/kg BIDx1, 8 h): 25.34 fold or %
- Hif1a fold increase or percent reduction vs vehicle control (75 mg/kg BIDx1, 8 h): 1.26 fold or %
- Il6 fold increase or percent reduction vs vehicle control (75 mg/kg BIDx1, 8 h): 68.47 fold or %
- Jun fold increase or percent reduction vs vehicle control (75 mg/kg BIDx1, 8 h): 22.75 fold or %
- Kras fold increase or percent reduction vs vehicle control (75 mg/kg BIDx1, 8 h): 1.03 fold or %
- Lig4 fold increase or percent reduction vs vehicle control (75 mg/kg BIDx1, 8 h): 1.13 fold or %
- Mdm2 fold increase or percent reduction vs vehicle control (75 mg/kg BIDx1, 8 h): 5.35 fold or %
- Mdm4 fold increase or percent reduction vs vehicle control (75 mg/kg BIDx1, 8 h): 1.03 fold or %
- Mel1 fold increase or percent reduction vs vehicle control (75 mg/kg BIDx1, 8 h): 24.40 fold or %
- Mlh1 fold increase or percent reduction vs vehicle control (75 mg/kg BIDx1, 8 h): 12.48 fold or %
- Msh2 fold increase or percent reduction vs vehicle control (75 mg/kg BIDx1, 8 h): 31.49 fold or %
- Myod1 fold increase or percent reduction vs vehicle control (75 mg/kg BIDx1, 8 h): 4.56 fold or %
- Nf1 fold increase or percent reduction vs vehicle control (75 mg/kg BIDx1, 8 h): 31.85 fold or %
- Nfkb1 fold increase or percent reduction vs vehicle control (75 mg/kg BIDx1, 8 h): 11.36 fold or %
- Pcna fold increase or percent reduction vs vehicle control (75 mg/kg BIDx1, 8 h): 32.47 fold or %
- Pmaip1 fold increase or percent reduction vs vehicle control (75 mg/kg BIDx1, 8 h): 1.60 fold or %
- Ppm1d fold increase or percent reduction vs vehicle control (75 mg/kg BIDx1, 8 h): 1.48 fold or %
- Prc1 fold increase or percent reduction vs vehicle control (75 mg/kg BIDx1, 8 h): 1.28 fold or %
- Prkca fold increase or percent reduction vs vehicle control (75 mg/kg BIDx1, 8 h): 5.77 fold or %
- Pten fold increase or percent reduction vs vehicle control (75 mg/kg BIDx1, 8 h): 0.35 fold or %
- Pttg1 fold increase or percent reduction vs vehicle control (75 mg/kg BIDx1, 8 h): 1.04 fold or %
- Rb1 fold increase or percent reduction vs vehicle control (75 mg/kg BIDx1, 8 h): 16.87 fold or %
- Rela fold increase or percent reduction vs vehicle control (75 mg/kg BIDx1, 8 h): 1.12 fold or %
- Rprm fold increase or percent reduction vs vehicle control (75 mg/kg BIDx1, 8 h): 3.08 fold or %
- Serpinb5 fold increase or percent reduction vs vehicle control (75 mg/kg BIDx1, 8 h): 3.96 fold or %
- Sesn2 fold increase or percent reduction vs vehicle control (75 mg/kg BIDx1, 8 h): 3.24 fold or %
- Sfn fold increase or percent reduction vs vehicle control (75 mg/kg BIDx1, 8 h): 1.12 fold or %
- Sirt1 fold increase or percent reduction vs vehicle control (75 mg/kg BIDx1, 8 h): 1.09 fold or %
- Stat1 fold increase or percent reduction vs vehicle control (75 mg/kg BIDx1, 8 h): 1.35 fold or %
- Tnf fold increase or percent reduction vs vehicle control (75 mg/kg BIDx1, 8 h): 1.85 fold or %
- Traf1 fold increase or percent reduction vs vehicle control (75 mg/kg BIDx1, 8 h): 1.23 fold or %
- Trp53bp2 fold increase or percent reduction vs vehicle control (75 mg/kg BIDx1, 8 h): 12.87 fold or %
- Trp53 fold increase or percent reduction vs vehicle control (75 mg/kg BIDx1, 8 h): 1.13 fold or %
- Apex1 fold increase or percent reduction vs vehicle control (75 mg/kg BIDx1, 24 h): 30.49 fold or %
- Atm fold increase or percent reduction vs vehicle control (75 mg/kg BIDx1, 24 h): 23.68 fold or %
- Atr fold increase or percent reduction vs vehicle control (75 mg/kg BIDx1, 24 h): 10.08 fold or %
- Bag1 fold increase or percent reduction vs vehicle control (75 mg/kg BIDx1, 24 h): 25.05 fold or %
- Bax fold increase or percent reduction vs vehicle control (75 mg/kg BIDx1, 24 h): 1.60 fold or %
- Bbc3 fold increase or percent reduction vs vehicle control (75 mg/kg BIDx1, 24 h): 1.80 fold or %
- Bcl2 fold increase or percent reduction vs vehicle control (75 mg/kg BIDx1, 24 h): 30.58 fold or %
- Bid fold increase or percent reduction vs vehicle control (75 mg/kg BIDx1, 24 h): 1.04 fold or %
- Birc5 fold increase or percent reduction vs vehicle control (75 mg/kg BIDx1, 24 h): 45.92 fold or %
- Brca1 fold increase or percent reduction vs vehicle control (75 mg/kg BIDx1, 24 h): 42.43 fold or %
- Brca2 fold increase or percent reduction vs vehicle control (75 mg/kg BIDx1, 24 h): 36.40 fold or %
- Btg2 fold increase or percent reduction vs vehicle control (75 mg/kg BIDx1, 24 h): 31.06 fold or %

— patent publication US20230049952A1, “METHODS AND COMPOUNDS FOR RESTORING MUTANT P53 FUNCTION” (PMV Pharmaceuticals, Inc., priority 2020, published 2023)
